The text below walks through data of ChEMBL document CHEMBL1150977, “A quantitative analysis of kinase inhibitor selectivity” (Nat Biotechnol, 2008).

In general, Kd refers to the equilibrium constant for the complex coming apart. A low value points to tighter binding.

SMILES strings stand for the structures.

Assay [1] concerns the target Ribosomal protein S6 kinase alpha-2 (Homo sapiens, UniProt Q15349).
Assay [2] concerns the target Mitogen-activated protein kinase kinase kinase kinase 5 (Homo sapiens, UniProt Q9Y4K4).
Assay [3] deals with Casein kinase II subunit alpha (Homo sapiens, UniProt P68400).
For assay [4], the target named is Dual specificity protein kinase CLK1 (Homo sapiens, UniProt P49759).
In assay [5] the target is T1, Serine/threonine-protein kinase NLK (Homo sapiens, UniProt Q9UBE8).
T1 sequence (Q9UBE8 whole entry): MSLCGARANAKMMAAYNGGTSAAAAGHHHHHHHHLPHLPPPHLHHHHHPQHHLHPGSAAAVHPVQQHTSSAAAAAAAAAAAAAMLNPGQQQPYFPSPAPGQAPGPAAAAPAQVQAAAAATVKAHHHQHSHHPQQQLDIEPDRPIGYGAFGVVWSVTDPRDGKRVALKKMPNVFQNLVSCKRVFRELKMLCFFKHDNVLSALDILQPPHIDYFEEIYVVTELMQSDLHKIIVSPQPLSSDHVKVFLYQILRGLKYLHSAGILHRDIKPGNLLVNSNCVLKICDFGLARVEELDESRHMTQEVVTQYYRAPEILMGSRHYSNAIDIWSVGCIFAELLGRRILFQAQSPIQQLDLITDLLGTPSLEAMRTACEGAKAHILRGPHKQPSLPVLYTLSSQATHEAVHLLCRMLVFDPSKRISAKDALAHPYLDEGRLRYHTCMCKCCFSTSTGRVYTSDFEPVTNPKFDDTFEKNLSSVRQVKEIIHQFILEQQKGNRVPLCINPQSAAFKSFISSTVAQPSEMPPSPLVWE

Assay [6] addresses Mitogen-activated protein kinase 4 (Homo sapiens, UniProt P31152).
Assay [7] concerns the target T2, Serine/threonine-protein kinase DCLK2 (Homo sapiens, UniProt Q8N568).
T2 sequence (Q8N568 whole entry): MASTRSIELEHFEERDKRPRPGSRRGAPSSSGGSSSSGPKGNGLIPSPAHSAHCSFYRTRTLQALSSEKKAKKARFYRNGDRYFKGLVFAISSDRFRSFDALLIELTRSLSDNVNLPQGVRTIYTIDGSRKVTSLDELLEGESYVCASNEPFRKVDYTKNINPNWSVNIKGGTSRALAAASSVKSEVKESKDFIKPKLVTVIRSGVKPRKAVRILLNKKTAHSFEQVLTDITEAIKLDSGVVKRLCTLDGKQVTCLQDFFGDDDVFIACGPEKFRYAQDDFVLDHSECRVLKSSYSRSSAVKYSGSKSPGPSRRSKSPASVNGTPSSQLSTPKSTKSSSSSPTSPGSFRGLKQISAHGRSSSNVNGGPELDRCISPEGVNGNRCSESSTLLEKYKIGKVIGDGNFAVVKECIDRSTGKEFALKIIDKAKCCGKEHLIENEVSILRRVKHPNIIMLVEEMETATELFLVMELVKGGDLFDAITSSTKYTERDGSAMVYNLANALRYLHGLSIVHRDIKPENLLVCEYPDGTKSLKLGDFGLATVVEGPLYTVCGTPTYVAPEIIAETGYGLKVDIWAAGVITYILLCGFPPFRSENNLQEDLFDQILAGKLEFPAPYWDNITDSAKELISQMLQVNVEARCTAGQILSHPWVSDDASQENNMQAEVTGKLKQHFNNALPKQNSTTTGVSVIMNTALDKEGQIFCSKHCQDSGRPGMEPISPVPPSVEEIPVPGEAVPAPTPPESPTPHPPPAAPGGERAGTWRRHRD

Assay [8] concerns the target SRSF protein kinase 2 (Homo sapiens, UniProt P78362).
Assay [9] addresses Mitogen-activated protein kinase kinase kinase 4 (Homo sapiens, UniProt Q9Y6R4).
Assay [10] concerns the target T3, Serine/threonine-protein kinase LATS2 (Homo sapiens, UniProt Q9NRM7).
T3 sequence (Q9NRM7 whole entry): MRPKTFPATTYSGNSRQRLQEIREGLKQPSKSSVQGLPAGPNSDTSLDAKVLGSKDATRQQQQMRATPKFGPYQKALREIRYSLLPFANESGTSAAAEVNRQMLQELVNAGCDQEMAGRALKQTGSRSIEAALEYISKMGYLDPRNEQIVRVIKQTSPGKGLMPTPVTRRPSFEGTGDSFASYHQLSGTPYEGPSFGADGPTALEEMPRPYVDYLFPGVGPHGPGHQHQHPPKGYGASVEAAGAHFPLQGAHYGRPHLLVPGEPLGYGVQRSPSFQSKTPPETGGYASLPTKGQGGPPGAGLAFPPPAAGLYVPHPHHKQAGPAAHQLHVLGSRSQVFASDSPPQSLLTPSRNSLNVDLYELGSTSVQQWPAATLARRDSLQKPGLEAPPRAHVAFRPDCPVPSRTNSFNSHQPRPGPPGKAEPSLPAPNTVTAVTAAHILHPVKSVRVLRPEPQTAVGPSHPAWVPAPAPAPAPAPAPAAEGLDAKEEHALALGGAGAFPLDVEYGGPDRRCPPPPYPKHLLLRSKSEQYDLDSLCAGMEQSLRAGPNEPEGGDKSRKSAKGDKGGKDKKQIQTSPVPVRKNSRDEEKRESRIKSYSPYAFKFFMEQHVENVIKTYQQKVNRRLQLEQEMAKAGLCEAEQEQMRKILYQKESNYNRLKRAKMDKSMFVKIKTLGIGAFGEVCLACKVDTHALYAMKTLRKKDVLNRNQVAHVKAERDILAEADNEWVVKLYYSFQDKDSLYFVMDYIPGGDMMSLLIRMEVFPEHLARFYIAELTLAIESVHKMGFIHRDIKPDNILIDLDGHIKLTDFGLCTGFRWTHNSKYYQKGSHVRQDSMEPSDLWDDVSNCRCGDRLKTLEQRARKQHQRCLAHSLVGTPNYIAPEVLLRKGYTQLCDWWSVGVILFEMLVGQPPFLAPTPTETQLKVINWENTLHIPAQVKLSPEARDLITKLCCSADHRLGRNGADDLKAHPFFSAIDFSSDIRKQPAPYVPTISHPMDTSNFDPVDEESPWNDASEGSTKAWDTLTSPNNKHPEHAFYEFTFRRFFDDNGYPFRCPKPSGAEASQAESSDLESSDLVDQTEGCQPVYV

Assay [11] concerns the target High affinity nerve growth factor receptor (Homo sapiens, UniProt P04629).

Sequence of Dual specificity protein kinase CLK1 (P49759 whole entry): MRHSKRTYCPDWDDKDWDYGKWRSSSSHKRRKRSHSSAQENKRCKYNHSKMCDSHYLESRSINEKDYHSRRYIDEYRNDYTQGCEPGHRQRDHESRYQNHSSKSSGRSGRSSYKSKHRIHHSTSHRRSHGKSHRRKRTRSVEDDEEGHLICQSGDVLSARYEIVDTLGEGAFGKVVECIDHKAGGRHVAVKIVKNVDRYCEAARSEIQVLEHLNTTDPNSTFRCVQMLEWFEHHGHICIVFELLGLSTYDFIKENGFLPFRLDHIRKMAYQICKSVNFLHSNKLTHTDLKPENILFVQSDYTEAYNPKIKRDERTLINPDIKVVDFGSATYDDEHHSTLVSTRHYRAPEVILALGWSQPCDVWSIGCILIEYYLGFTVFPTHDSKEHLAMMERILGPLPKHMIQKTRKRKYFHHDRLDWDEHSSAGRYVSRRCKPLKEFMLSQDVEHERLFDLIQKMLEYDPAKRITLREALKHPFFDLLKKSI
Sequence of Casein kinase II subunit alpha (P68400 whole entry): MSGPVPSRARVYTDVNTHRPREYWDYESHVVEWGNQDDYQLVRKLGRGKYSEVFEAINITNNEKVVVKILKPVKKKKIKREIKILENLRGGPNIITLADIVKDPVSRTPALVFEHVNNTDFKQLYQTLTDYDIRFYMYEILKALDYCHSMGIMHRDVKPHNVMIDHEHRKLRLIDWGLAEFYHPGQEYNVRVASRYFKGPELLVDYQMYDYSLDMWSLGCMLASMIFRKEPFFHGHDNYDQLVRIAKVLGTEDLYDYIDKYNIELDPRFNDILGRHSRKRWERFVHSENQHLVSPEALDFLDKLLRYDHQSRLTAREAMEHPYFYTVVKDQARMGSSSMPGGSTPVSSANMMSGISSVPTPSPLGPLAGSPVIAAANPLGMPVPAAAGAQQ
Sequence of Mitogen-activated protein kinase kinase kinase 4 (Q9Y6R4 whole entry): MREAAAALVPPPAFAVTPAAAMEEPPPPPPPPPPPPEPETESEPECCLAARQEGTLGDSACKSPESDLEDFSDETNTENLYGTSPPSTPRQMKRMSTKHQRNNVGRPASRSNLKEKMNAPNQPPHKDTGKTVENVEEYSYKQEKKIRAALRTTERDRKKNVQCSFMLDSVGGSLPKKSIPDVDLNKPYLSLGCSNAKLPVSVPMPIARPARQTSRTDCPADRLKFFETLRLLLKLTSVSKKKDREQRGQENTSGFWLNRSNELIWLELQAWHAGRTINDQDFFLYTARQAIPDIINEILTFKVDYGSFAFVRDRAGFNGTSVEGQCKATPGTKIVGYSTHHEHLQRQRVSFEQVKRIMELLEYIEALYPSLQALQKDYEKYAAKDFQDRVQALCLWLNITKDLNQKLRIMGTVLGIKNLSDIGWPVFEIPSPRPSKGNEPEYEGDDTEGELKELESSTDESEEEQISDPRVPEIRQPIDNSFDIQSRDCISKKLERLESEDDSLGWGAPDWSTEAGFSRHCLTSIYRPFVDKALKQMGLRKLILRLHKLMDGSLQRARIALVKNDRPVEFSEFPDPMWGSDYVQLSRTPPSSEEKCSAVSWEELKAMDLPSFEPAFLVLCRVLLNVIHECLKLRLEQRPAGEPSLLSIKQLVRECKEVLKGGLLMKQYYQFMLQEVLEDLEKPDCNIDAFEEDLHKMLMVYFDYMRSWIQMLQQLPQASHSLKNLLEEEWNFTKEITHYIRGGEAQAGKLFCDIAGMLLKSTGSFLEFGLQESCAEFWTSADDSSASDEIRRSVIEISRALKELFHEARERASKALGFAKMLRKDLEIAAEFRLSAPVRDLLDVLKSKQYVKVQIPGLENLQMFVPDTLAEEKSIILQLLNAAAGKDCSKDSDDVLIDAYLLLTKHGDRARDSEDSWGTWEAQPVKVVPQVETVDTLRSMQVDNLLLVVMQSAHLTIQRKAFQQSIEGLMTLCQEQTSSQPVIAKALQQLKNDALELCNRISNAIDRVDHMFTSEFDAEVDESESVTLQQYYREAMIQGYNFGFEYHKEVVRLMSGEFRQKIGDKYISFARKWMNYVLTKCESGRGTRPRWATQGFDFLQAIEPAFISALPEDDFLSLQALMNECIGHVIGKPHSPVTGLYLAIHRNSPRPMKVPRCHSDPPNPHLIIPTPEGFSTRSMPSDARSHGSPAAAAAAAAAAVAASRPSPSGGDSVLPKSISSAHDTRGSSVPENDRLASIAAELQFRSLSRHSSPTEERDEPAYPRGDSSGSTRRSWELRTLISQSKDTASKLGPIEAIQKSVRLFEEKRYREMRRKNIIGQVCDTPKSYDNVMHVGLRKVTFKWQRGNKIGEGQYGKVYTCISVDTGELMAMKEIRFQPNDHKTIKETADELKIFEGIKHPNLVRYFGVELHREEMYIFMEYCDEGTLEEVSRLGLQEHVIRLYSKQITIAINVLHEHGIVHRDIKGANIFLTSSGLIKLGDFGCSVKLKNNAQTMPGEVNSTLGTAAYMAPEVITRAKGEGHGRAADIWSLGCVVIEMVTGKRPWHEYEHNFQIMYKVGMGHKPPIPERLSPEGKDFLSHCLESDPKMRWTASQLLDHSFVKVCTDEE
Sequence of Mitogen-activated protein kinase 4 (P31152 whole entry): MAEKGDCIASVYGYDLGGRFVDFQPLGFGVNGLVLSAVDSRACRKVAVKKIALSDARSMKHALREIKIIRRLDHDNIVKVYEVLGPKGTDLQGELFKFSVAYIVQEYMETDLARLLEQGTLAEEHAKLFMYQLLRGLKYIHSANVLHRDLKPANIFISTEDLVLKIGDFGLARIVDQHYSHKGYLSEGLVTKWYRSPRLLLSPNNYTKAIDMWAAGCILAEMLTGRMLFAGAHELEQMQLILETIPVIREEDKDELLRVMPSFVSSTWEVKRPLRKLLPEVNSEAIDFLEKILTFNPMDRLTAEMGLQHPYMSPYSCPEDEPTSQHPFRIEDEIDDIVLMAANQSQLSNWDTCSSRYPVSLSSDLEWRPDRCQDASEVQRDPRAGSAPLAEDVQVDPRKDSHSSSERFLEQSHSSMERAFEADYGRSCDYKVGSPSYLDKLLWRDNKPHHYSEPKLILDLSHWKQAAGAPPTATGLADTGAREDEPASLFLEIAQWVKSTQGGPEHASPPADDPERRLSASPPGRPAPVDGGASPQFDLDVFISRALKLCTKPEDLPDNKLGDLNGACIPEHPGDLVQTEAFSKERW
Sequence of High affinity nerve growth factor receptor (P04629 whole entry): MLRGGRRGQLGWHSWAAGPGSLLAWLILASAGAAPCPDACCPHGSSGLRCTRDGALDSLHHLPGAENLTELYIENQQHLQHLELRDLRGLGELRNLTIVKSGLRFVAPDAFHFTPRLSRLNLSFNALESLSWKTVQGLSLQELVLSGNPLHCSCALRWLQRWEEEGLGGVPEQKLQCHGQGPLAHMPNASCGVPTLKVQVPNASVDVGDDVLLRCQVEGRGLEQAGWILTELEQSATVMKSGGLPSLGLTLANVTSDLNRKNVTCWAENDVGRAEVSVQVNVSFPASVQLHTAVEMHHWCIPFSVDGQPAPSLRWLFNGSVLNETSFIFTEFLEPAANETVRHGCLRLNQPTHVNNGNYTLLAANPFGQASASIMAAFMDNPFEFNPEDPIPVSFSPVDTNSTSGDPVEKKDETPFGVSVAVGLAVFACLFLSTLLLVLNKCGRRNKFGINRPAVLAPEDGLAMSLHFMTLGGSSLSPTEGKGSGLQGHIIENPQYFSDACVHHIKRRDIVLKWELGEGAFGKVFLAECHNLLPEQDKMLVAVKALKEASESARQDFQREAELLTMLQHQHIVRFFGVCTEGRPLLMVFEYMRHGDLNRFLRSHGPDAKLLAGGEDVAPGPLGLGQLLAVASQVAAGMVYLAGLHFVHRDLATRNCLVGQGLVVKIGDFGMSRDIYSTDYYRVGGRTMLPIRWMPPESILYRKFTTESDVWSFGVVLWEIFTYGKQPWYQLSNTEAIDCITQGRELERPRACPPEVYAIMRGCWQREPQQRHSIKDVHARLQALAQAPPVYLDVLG
Sequence of Mitogen-activated protein kinase kinase kinase kinase 5 (Q9Y4K4 whole entry): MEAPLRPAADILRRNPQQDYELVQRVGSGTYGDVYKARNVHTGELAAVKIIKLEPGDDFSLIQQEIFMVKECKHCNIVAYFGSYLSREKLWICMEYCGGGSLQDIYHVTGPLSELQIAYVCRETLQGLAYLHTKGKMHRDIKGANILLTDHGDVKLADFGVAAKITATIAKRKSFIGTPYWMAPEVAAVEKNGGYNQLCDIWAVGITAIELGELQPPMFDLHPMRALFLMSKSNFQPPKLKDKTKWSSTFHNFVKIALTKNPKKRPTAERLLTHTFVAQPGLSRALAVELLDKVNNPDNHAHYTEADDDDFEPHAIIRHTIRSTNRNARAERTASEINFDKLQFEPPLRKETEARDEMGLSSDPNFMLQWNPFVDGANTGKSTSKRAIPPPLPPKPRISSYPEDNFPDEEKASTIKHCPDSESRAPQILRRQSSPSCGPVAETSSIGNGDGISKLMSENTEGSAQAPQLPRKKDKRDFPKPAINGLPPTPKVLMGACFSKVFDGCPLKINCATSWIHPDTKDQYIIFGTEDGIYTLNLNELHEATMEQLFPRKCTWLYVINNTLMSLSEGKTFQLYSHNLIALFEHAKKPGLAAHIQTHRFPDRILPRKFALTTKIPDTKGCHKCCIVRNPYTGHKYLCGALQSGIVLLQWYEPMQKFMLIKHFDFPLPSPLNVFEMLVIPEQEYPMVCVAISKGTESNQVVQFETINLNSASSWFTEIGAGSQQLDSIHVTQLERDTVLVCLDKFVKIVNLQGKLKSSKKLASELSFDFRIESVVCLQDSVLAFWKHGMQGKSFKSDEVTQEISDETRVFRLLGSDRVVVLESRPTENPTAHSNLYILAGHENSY

With `COCC(=O)NC/C=C/c1ccc2ncnc(Nc3ccc(Oc4ccc(C)nc4)c(C)c3)c2c1` [CP-724714], the Kd in [1], in assay [2], in assay [3], in [4], in assay [5] and in assay [6] was above 10 µM in each case. For the same compound, the dissociation constant Kd in assay [7], in assay [8], in assay [9], in assay [10] and in [11] was above 10 µM in each case.
Regarding `Nc1nc(Nc2ccc(S(N)(=O)=O)cc2)nn1C(=O)c1c(F)cccc1F` [JNJ-7706621], the Kd in assay [1] was 0.41 µM; in [3] it was above 10 µM; in assay [5] it was above 10 µM; in assay [6], 1.6 µM; in assay [7], 4.5 µM; in [8] it was above 10 µM. The equilibrium dissociation constant (Kd) in assay [9] was above 10 µM.
Regarding `CCOc1cc2ncc(C#N)c(Nc3ccc(F)c(Cl)c3)c2cc1NC(=O)/C=C/CN(C)C` [PELITINIB], the dissociation constant Kd was above 10 µM in [1]; 0.01 µM in [2]; above 10 µM in assay [3]; above 10 µM in assay [5]; above 10 µM in assay [6]; above 10 µM in assay [7]. For the same compound, the Kd in [8], in assay [10] and in assay [11] was above 10 µM throughout.
Take `Oc1ccc(-c2nc(-c3ccncc3)c(-c3ccc(F)cc3)[nH]2)cc1` [SB-202190]: the dissociation constant Kd is above 10 µM in assay [1]; above 10 µM in [2]; above 10 µM in assay [3]; above 10 µM in assay [4]; 0.028 µM in assay [5]; above 10 µM in assay [6]. Further, the dissociation constant Kd in [7], in assay [8], in [9] and in assay [11] was above 10 µM in each case.
`NC(=O)c1ccc(-c2nc(-c3ccc4c(c3)OCO4)c(-c3ccccn3)[nH]2)cc1` [SB-431542]: the Kd in [1], in assay [2], in assay [3], in assay [4], in assay [5] and in assay [6] was above 10 µM throughout. Moreover, the dissociation constant (Kd) in [7], in assay [8], in assay [9], in assay [10] and in assay [11] was above 10 µM each time.
